Results reported in patent publication US20240246940A1, “HETEROARYL DERIVATIVE COMPOUND AND USE THEREOF” (VORONOI INC., priority 2021, published 2024).

Key:
[1] = test system: Ba/F3 cells expressing EGFR G719A/S768I; test: Transduced Ba/F3 cell proliferation inhibitory activity, EGFR G719A/S768I; assay type: cell-based; settings: Mus musculus, BaF3, 72 hours
Procedure: (§1) For Ba/F3 cells, RPMI-1640 supplemented with 10% FBS and 5 ng/ml IL-3 (R&D Systems) was used. Transduced Ba/F3 cells were cultured by adding 1 μg/ml puromycin (Invitrogen) to the same medium.
(§2) 3000 to 5000 cells were aliquoted into each well of a white clear bottom 96 well plate (Corning) 24 hours before treatment with the compounds of Examples. The compounds of Examples were diluted in dimethyl sulfoxide (three-fold dilution, a total of 12 concentrations) and injected each in an amount of 1 μl to a final concentration of 0.2 nM to 5 μM. For the measurement of living cells, the cells were stored at room temperature for 10 minutes using CellTiter-Glo luminescent cell-viability reagent (Promega) in 72 hours after treatment with the compounds of Examples, and the luminescence intensity thereof was measured using a reader (SynergyNeo, Biotek). Each test was repeated three times. The result values were calculated as a cell growth rate (%) compared to those of the control group. A graph was created using the GraphPad Prism version 8.3.0 program, and GI50 values were calculated.

[2] = test system: N-87 cells (HER2 overexpressing cell line); test: N-87 cell proliferation inhibitory activity (CellTiter-Glo, 72 hours); assay type: cell-based
Summary of the method: (§3)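 Luminescent viability read-out, growth % vs control → GI50, n=3. Seeding: SK-BR-3/BT-474 5000 cells, 48 h pre-plating; N-87 5000, 24 h; HaCaT 3000, 24 h. Dose ranges: 0.2 nM–10 μM (SK-BR-3, BT-474; 3-fold), […]–5 μM (N-87; 5-fold), 0.8 nM–45 μM (HaCaT; 3-fold).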

[3] = test system: HaCaT cells (EGFR expressing cell line); test: HaCaT cell proliferation inhibitory activity (CellTiter-Glo, 72 hours); assay type: cell-based; settings: Homo sapiens
Summary of the method: as §3

[4] = test system: Ba/F3 cells expressing EGFR S768I; test: Transduced Ba/F3 cell proliferation inhibitory activity, EGFR S768I; assay type: cell-based; settings: Mus musculus, BaF3, 72 hours
Procedure: as §1, §2

[5] = test system: Ba/F3 cells expressing HER2 L756S; test: Transduced Ba/F3 cell proliferation inhibitory activity, HER2 L756S; assay type: cell-based; settings: Mus musculus, BaF3; Ba/F3 HER2 L755S, 72 hours
Procedure: as §1, §2

[6] = test system: Ba/F3 cells expressing EGFR G719A; test: Transduced Ba/F3 cell proliferation inhibitory activity, EGFR G719A; assay type: cell-based; settings: Mus musculus, BaF3, 72 hours
Procedure: as §1, §2

[7] = test system: Ba/F3 cells expressing EGFR L861Q; test: Transduced Ba/F3 cell proliferation inhibitory activity, EGFR L861Q; assay type: cell-based; settings: Mus musculus, BaF3, 72 hours
Procedure: as §1, §2

[8] = test system: BT-474 cells (HER2 overexpressing cell line); test: BT-474 cell proliferation inhibitory activity (CellTiter-Glo, 120 hours); assay type: cell-based; settings: Homo sapiens
Summary of the method: as §3

[9] = test system: Ba/F3 cells expressing HER2 WT; test: Transduced Ba/F3 cell proliferation inhibitory activity, HER2 WT; assay type: cell-based; settings: Mus musculus, BaF3, 72 hours
Procedure: as §1, §2

[10] = test system: Ba/F3 cells expressing HER2 T798I; test: Transduced Ba/F3 cell proliferation inhibitory activity, HER2 T798I; assay type: cell-based; settings: Mus musculus, BaF3, 72 hours
Procedure: as §1, §2

[11] = test system: SK-BR-3 cells (HER2 overexpressing cell line); test: SK-BR-3 cell proliferation inhibitory activity (CellTiter-Glo, 120 hours); assay type: cell-based; settings: Homo sapiens
Summary of the method: as §3

[12] = test system: Ba/F3 cells expressing HER2 T862A; test: Transduced Ba/F3 cell proliferation inhibitory activity, HER2 T862A; assay type: cell-based; settings: Mus musculus, BaF3, 72 hours
Procedure: as §1, §2

HER2 = molecular target: T1, HER2 (Homo sapiens, UniProt P04626); test: Biochemical kinase assay for HER2 (Reaction Biology Corp), ATP 10 μM, 10-dose IC50
T1 construct: purchased Reaction Biology Corp
Procedure: (§4) Biochemical kinase assays for HER2 and EGFR were performed by Reaction Biology Corp (San Diego, USA).

[13] = test system: Ba/F3 cells expressing EGFR WT; test: Transduced Ba/F3 cell proliferation inhibitory activity, EGFR WT; assay type: cell-based; settings: Mus musculus, BaF3, 72 hours
Procedure: as §1, §2

EGFR = molecular target: T2, EGFR (Homo sapiens, UniProt P00533); test: Biochemical kinase assay for EGFR (Reaction Biology Corp), ATP 10 μM, 10-dose IC50
T2 construct: purchased Reaction Biology Corp
Procedure: as §4

[14] = test system: Ba/F3 cells expressing HER2 L869R; test: Transduced Ba/F3 cell proliferation inhibitory activity, HER2 L869R; assay type: cell-based; settings: Mus musculus, BaF3, 72 hours
Procedure: as §1, §2

[15] = test system: Ba/F3 cells expressing EGFR Del19/T790M; test: Transduced Ba/F3 cell proliferation inhibitory activity, EGFR Del19/T790M; assay type: cell-based; settings: Mus musculus, BaF3, 72 hours
Procedure: as §1, §2

T2 sequence (P00533 25-1210): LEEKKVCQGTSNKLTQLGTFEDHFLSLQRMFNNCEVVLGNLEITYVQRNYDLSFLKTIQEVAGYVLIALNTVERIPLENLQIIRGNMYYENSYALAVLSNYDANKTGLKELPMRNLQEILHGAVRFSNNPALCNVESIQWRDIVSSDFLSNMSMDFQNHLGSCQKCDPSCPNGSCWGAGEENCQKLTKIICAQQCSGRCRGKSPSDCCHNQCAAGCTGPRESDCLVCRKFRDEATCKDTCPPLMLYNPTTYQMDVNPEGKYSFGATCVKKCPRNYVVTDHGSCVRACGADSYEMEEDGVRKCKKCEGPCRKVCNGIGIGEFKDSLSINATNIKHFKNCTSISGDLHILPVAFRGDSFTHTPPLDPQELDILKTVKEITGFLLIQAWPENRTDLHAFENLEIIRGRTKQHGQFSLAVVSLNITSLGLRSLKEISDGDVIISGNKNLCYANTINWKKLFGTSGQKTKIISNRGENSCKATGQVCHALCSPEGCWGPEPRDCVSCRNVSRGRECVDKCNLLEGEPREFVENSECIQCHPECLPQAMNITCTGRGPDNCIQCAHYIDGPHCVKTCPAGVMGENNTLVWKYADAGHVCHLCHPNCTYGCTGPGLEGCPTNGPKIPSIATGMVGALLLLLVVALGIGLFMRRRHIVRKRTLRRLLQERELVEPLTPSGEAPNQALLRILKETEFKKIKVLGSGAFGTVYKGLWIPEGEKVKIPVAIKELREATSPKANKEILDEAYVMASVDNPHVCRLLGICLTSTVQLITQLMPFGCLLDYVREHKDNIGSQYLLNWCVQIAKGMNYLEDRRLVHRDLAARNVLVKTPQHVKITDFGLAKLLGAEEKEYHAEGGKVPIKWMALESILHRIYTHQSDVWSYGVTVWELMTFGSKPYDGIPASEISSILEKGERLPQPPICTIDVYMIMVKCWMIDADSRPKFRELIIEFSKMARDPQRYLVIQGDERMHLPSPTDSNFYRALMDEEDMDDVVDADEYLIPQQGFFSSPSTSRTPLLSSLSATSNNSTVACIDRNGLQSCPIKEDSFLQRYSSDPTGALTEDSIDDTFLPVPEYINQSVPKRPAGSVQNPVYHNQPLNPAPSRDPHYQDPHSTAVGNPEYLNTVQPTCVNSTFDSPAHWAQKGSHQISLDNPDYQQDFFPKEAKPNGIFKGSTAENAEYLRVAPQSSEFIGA
T1 sequence (P04626 23-1255): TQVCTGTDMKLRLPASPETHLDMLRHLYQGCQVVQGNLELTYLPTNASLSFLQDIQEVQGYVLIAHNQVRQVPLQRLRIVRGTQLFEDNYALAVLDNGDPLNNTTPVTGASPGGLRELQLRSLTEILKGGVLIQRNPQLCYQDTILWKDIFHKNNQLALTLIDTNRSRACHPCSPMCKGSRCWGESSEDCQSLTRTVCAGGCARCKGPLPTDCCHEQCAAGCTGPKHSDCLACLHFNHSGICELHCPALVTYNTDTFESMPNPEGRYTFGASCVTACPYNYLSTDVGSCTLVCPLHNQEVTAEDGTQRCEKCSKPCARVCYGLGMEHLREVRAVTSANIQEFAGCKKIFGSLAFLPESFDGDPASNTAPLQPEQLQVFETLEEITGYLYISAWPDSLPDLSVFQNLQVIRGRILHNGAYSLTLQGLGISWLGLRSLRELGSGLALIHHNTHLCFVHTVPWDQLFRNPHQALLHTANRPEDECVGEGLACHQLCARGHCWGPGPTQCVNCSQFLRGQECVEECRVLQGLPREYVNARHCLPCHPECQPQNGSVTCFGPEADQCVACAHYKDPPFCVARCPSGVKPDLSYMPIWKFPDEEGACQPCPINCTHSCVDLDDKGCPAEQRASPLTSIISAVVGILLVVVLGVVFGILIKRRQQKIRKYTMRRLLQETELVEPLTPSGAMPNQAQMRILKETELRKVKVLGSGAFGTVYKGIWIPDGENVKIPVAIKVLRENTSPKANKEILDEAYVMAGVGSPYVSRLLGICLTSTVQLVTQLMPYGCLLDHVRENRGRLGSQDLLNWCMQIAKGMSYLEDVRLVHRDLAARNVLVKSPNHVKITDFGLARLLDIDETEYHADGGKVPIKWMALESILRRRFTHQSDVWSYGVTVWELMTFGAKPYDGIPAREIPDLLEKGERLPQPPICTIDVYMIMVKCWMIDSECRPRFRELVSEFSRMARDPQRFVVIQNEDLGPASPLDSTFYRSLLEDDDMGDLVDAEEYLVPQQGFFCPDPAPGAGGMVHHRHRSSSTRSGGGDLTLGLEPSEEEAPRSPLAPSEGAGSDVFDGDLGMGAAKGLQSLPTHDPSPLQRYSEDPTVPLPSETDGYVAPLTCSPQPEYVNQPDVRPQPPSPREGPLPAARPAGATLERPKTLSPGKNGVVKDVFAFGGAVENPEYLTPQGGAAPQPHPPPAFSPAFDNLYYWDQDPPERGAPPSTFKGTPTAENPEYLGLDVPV

C=CC(=O)N1CCC(Oc2cc3c(Nc4cc(-c5ccc(F)cc5F)ccc4OC)ncnc3cc2OC)CC1 [Example 68, 1-(4-((4-((2′,4′-difluoro-4-methoxy-[1,1′-biphenyl]-3-yl)amino)-7-methoxy-quinazolin-6-yl)oxy)piperidin-1-yl)prop-2-en-1-one]
≤ 0.15 µM: GI50 [2] | GI50 [3] | GI50 [8] | GI50 [11]
≤ 0.05 µM: GI50 [1] | GI50 [5] | GI50 [6] | GI50 [7] | GI50 [9] | GI50 [12] | IC50 (HER2) | IC50 (EGFR) | GI50 [14] | GI50 [15]
0.1 to 0.5 µM: GI50 [10]
0.05 to 0.1 µM: GI50 [4] | GI50 [13]

C=CC(=O)N1CCC(Oc2cc3c(Nc4cc(-c5cccs5)ccc4OC)ncnc3cc2OC)CC1 [Example 78, 1-(4-((7-methoxy-4-((2-methoxy-5-(thiophen-2-yl)phenyl)amino)quinazolin-6-yl)oxy)piperidin-1-yl)prop-2-en-1-one]
≤ 0.15 µM: GI50 [11]
≤ 0.05 µM: GI50 [10] | GI50 [14]

C=CC(=O)N1CCC(Oc2cc3c(Nc4cc(-c5ccco5)ccc4OC)ncnc3cc2OC)CC1 [Example 80, 1-(4-((4-((5-(furan-2-yl)-2-methoxyphenyl)amino)-7-methoxy-quinazolin-6-yl)oxy)piperidin-1-yl)prop-2-en-1-one]
≤ 0.05 µM: GI50 [1] | GI50 [4] | GI50 [5] | GI50 [6] | GI50 [7] | GI50 [9] | GI50 [10] | GI50 [12] | IC50 (HER2) | GI50 [13] | GI50 [14] | GI50 [15]
≤ 0.15 µM: GI50 [3] | GI50 [8] | GI50 [11]

C=CC(=O)N1CCC(Oc2cc3c(Nc4cc(-c5ccc(F)cc5F)ccc4OC)ncnc3cc2OC)C(F)C1 (stereo not drawn) [Example 143, 1-(4-((4-((2′,4′-difluoro-4-methoxy-[1,1′-biphenyl]-3-yl)amino)-7-methoxy-quinazolin-6-yl)oxy)-3-fluoropiperidin-1-yl)prop-2-en-1-one]
≤ 0.15 µM: GI50 [2] | GI50 [3] | GI50 [8] | GI50 [11]
≤ 0.05 µM: GI50 [5] | GI50 [12] | GI50 [14]

C=CC(=O)N1CCC(Nc2cc3c(Nc4cc(-c5ccco5)ccc4OC)ncnc3cc2OCC)CC1 [Example 300, 1-(4-((7-ethoxy-4-((5-(furan-2-yl)-2-methoxyphenyl)amino)quinazolin-6-yl)amino)piperidin-1-yl)prop-2-en-1-one]
≤ 0.15 µM: GI50 [2] | GI50 [3] | GI50 [8]
0.1 to 0.5 µM: GI50 [10]
≤ 0.05 µM: GI50 [5] | GI50 [9] | GI50 [12]

COc1cc2ncnc(Nc3cc(-c4ccc(F)cc4F)ccc3OC)c2cc1NC(=O)/C(F)=C\[C@H]1CCCN1C [Example 304, (R,E)-N-(4-((2′,4′-difluoro-4-methoxy-[1,1′-biphenyl]-3-yl)amino)-7-methoxyquinazolin-6-yl)-2-fluoro-3-(1-methylpyrrolidin-2-yl)acrylamide]
≤ 0.05 µM: IC50 (HER2) | IC50 (EGFR)
≤ 0.15 µM: GI50 [2] | GI50 [3] | GI50 [8]

COc1cc2ncnc(Nc3cc(-c4ccc(F)cc4F)ccc3OC)c2cc1NC(=O)/C=C/[C@H]1CCCN1C [Example 305, (R,E)-N-(4-((2′,4′-difluoro-4-methoxy-[1,1′-biphenyl]-3-yl)amino)-7-methoxyquinazolin-6-yl)-3-(1-methylpyrrolidin-2-yl)acrylamide]
≤ 0.15 µM: GI50 [2] | GI50 [3] | GI50 [8] | GI50 [11]
≤ 0.05 µM: GI50 [5] | GI50 [9] | GI50 [10] | GI50 [12] | IC50 (HER2) | IC50 (EGFR)

COc1cc2ncnc(Nc3cc(-c4ccco4)ccc3OC)c2cc1NC(=O)/C=C/[C@H]1CCCN1C [Example 306, (R,E)-N-(4-((5-(furan-2-yl)-2-methoxyphenyl)amino)-7-methoxyquinazolin-6-yl)-3-(1-methylpyrrolidin-2-yl)acrylamide]
≤ 0.05 µM: GI50 [4] | IC50 (HER2) | GI50 [13] | IC50 (EGFR)
≤ 0.15 µM: GI50 [2] | GI50 [3] | GI50 [8] | GI50 [11]

COc1cc2ncnc(Nc3cc(-c4ccco4)ccc3OC)c2cc1NC(=O)/C(F)=C\[C@H]1CCCN1C [Example 307, (R,E)-2-fluoro-N-(4-((5-(furan-2-yl)-2-methoxyphenyl)amino)-7-methoxyquinazolin-6-yl)-3-(1-methylpyrrolidin-2-yl)acrylamide]
≤ 0.15 µM: GI50 [2] | GI50 [3] | GI50 [8] | GI50 [11]
≤ 0.05 µM: GI50 [4] | GI50 [13]
